Measurements published in ChEMBL document CHEMBL1201862, “PubChem BioAssay data set” (2004).
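Step 1: Grow cells in 96-well plates. Step 2: Expose to compound for 48 hours at 5 concentrations. Step 3: Interpolate endpoints linearly; if unreached, use highest concentration. GI50 is the concentration that inhibits growth by half.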 Active and inactive are the calls of the source. Cut-off read from the data, not from the text of the source: active = GI50 up to about 1.1 µM and inactive = higher.

Key:
Test in all cases: inhibition of tumour cell growth, NCI panel, 48 h
[1] = test system: 786-0
[2] = test system: COLO 205
[3] = test system: HCT-116
[4] = test system: HOP-62
[5] = test system: K562
[6] = test system: LOX IMVI
[7] = test system: MDA-N
[8] = test system: NCI-H23
[9] = test system: NCI-H460
[10] = test system: OVCAR-3
[11] = test system: RXF 393
[12] = test system: SF-268
[13] = test system: SF-295
[14] = test system: SF-539
[15] = test system: SK-MEL-28
[16] = test system: SK-OV-3
[17] = test system: SNB-19
[18] = test system: SW-620
[19] = test system: U-251
[20] = test system: HCC 2998

Cc1nn(C(=O)c2ccccc2O)c2c1C(c1ccc3ccccc3c1O)SC(=N)N2 (stereo not drawn)
GI50 [1]: 6.47 µM (inactive) | GI50 [2]: 2.4 µM (inactive) | GI50 [3]: 1.5 µM (inactive) | GI50 [4]: 4.26 µM (inactive) | GI50 [5]: 3.6 µM (inactive) | GI50 [6]: 3.75 µM (inactive) | GI50 [7]: 3.44 µM (inactive) | GI50 [8]: 4.97 µM (inactive) | GI50 [9]: 5.53 µM (inactive) | GI50 [10]: 2.69 µM (inactive) | GI50 [11]: 6.56 µM (inactive) | GI50 [12]: 4.89 µM (inactive) | GI50 [13]: > 10 µM (inactive) | GI50 [14]: 4.53 µM (inactive) | GI50 [15]: 5.16 µM (inactive) | GI50 [16]: 6.3 µM (inactive) | GI50 [17]: 8.61 µM (inactive) | GI50 [18]: 4.61 µM (inactive) | GI50 [19]: 3.66 µM (inactive)

CC(=O)Nc1ccc(NNc2cc(=O)n(C)c(=O)[nH]2)cc1
GI50 [1]: 2.71 µM (inactive) | GI50 [2]: 11.8 µM (inactive) | GI50 [20]: 11.4 µM (inactive) | GI50 [3]: 4.33 µM (inactive) | GI50 [4]: 15.1 µM (inactive) | GI50 [5]: 33.3 µM (inactive) | GI50 [6]: 2.56 µM (inactive) | GI50 [7]: 11 µM (inactive) | GI50 [8]: 14.7 µM (inactive) | GI50 [9]: 17.1 µM (inactive) | GI50 [10]: 2.68 µM (inactive) | GI50 [13]: 15.8 µM (inactive) | GI50 [14]: 9.73 µM (inactive) | GI50 [15]: 11.9 µM (inactive) | GI50 [17]: 17.7 µM (inactive) | GI50 [18]: 2.98 µM (inactive) | GI50 [19]: 11.7 µM (inactive)

Nc1cccc(/C=C/C(=O)N2CCN(CCOC(c3ccccc3)c3ccccc3)CC2)c1
GI50 [1]: 16.7 µM (inactive) | GI50 [2]: 12.7 µM (inactive) | GI50 [3]: 15.5 µM (inactive) | GI50 [4]: 17.7 µM (inactive) | GI50 [5]: 9.98 µM (inactive) | GI50 [6]: 17.9 µM (inactive) | GI50 [7]: 17.8 µM (inactive) | GI50 [8]: 18.5 µM (inactive) | GI50 [9]: 16.9 µM (inactive) | GI50 [10]: 16.6 µM (inactive) | GI50 [11]: 15.3 µM (inactive) | GI50 [12]: 17.4 µM (inactive) | GI50 [13]: 17.3 µM (inactive) | GI50 [14]: 17.3 µM (inactive) | GI50 [15]: 15 µM (inactive) | GI50 [16]: 16.5 µM (inactive) | GI50 [17]: 17 µM (inactive) | GI50 [18]: 15.7 µM (inactive) | GI50 [19]: 15.8 µM (inactive)

C=C(C)C1=CCC[C@]2(C1)N=C(OC)[C@@H](C(C)C)N=C2OC
GI50 [1]: > 100 µM (inactive) | GI50 [2]: > 100 µM (inactive) | GI50 [20]: > 100 µM (inactive) | GI50 [3]: > 100 µM (inactive) | GI50 [4]: > 100 µM (inactive) | GI50 [7]: 32.2 µM (inactive) | GI50 [8]: > 100 µM (inactive) | GI50 [9]: > 100 µM (inactive) | GI50 [10]: > 100 µM (inactive) | GI50 [12]: > 100 µM (inactive) | GI50 [13]: > 100 µM (inactive) | GI50 [14]: > 100 µM (inactive) | GI50 [15]: > 100 µM (inactive) | GI50 [16]: > 100 µM (inactive) | GI50 [17]: > 100 µM (inactive) | GI50 [18]: > 100 µM (inactive) | GI50 [19]: > 100 µM (inactive)

Cc1cccnc1N/C=C1\C(=O)NC(=O)N(C)C1=O
GI50 [1]: > 100 µM (inactive) | GI50 [2]: > 100 µM (inactive) | GI50 [3]: > 100 µM (inactive) | GI50 [4]: > 100 µM (inactive) | GI50 [6]: 93.8 µM (inactive) | GI50 [7]: > 100 µM (inactive) | GI50 [8]: 49.7 µM (inactive) | GI50 [9]: > 100 µM (inactive) | GI50 [10]: > 100 µM (inactive) | GI50 [12]: > 100 µM (inactive) | GI50 [13]: > 100 µM (inactive) | GI50 [14]: > 100 µM (inactive) | GI50 [15]: > 100 µM (inactive) | GI50 [16]: > 100 µM (inactive) | GI50 [17]: > 100 µM (inactive) | GI50 [18]: > 100 µM (inactive) | GI50 [19]: > 100 µM (inactive)

CCCCCCc1cc2cc(C(=O)Nc3cccc(F)c3)c(=N)oc2cc1O
GI50 [1]: 3.28 µM (inactive) | GI50 [2]: 14.6 µM (inactive) | GI50 [20]: 3.19 µM (inactive) | GI50 [3]: 2.86 µM (inactive) | GI50 [4]: 4.57 µM (inactive) | GI50 [5]: 1.15 µM (inactive) | GI50 [6]: 1.67 µM (inactive) | GI50 [7]: 3.14 µM (inactive) | GI50 [8]: 2.12 µM (inactive) | GI50 [9]: 3.19 µM (inactive) | GI50 [10]: 4.19 µM (inactive) | GI50 [12]: 2.32 µM (inactive) | GI50 [13]: 3.2 µM (inactive) | GI50 [14]: 3.26 µM (inactive) | GI50 [15]: 2.67 µM (inactive) | GI50 [16]: 3.37 µM (inactive) | GI50 [17]: 3.55 µM (inactive) | GI50 [18]: 3.39 µM (inactive) | GI50 [19]: 1.97 µM (inactive)

O=C1C=C(NCC(c2ccccc2)c2ccccc2)C(=O)c2ncccc21
GI50 [1]: 2.88 µM (inactive) | GI50 [2]: 9.89 µM (inactive) | GI50 [20]: 0.785 µM (active) | GI50 [3]: 8.53 µM (inactive) | GI50 [4]: 1.57 µM (inactive) | GI50 [5]: 1.38 µM (inactive) | GI50 [6]: 1.11 µM (active) | GI50 [7]: 1.6 µM (inactive) | GI50 [8]: 1.54 µM (inactive) | GI50 [9]: 0.518 µM (active) | GI50 [10]: 0.991 µM (active) | GI50 [12]: 2.53 µM (inactive) | GI50 [13]: 1.74 µM (inactive) | GI50 [14]: 3.09 µM (inactive) | GI50 [15]: 2.85 µM (inactive) | GI50 [16]: 7.33 µM (inactive) | GI50 [17]: 2.58 µM (inactive) | GI50 [18]: 1.83 µM (inactive) | GI50 [19]: 2.05 µM (inactive)

Cc1ccc(C2SC(=N)Nc3c2c(C)nn3C(=O)c2ccccc2O)cc1 (stereo not drawn)
GI50 [1]: > 10 µM (inactive) | GI50 [2]: > 10 µM (inactive) | GI50 [3]: > 10 µM (inactive) | GI50 [4]: > 10 µM (inactive) | GI50 [5]: 4.35 µM (inactive) | GI50 [6]: > 10 µM (inactive) | GI50 [7]: 7.14 µM (inactive) | GI50 [8]: 7 µM (inactive) | GI50 [9]: 7.57 µM (inactive) | GI50 [10]: > 10 µM (inactive) | GI50 [11]: > 10 µM (inactive) | GI50 [12]: 9.44 µM (inactive) | GI50 [14]: 5.68 µM (inactive) | GI50 [15]: > 10 µM (inactive) | GI50 [16]: 3.3 µM (inactive) | GI50 [17]: > 10 µM (inactive) | GI50 [18]: > 10 µM (inactive) | GI50 [19]: 5.38 µM (inactive)

CC(=O)N1c2ccccc2C2=NN(C)C(=N)SC21 (stereo not drawn)
GI50 [1]: > 100 µM (inactive) | GI50 [2]: > 100 µM (inactive) | GI50 [20]: > 100 µM (inactive) | GI50 [3]: > 100 µM (inactive) | GI50 [4]: > 100 µM (inactive) | GI50 [5]: > 100 µM (inactive) | GI50 [6]: > 100 µM (inactive) | GI50 [7]: > 100 µM (inactive) | GI50 [8]: > 100 µM (inactive) | GI50 [9]: > 100 µM (inactive) | GI50 [10]: 13.8 µM (inactive) | GI50 [12]: > 100 µM (inactive) | GI50 [13]: 50.4 µM (inactive) | GI50 [14]: > 100 µM (inactive) | GI50 [15]: > 100 µM (inactive) | GI50 [17]: > 100 µM (inactive) | GI50 [18]: > 100 µM (inactive) | GI50 [19]: > 100 µM (inactive)

O=C(CBr)N1CCC2(CC1)SSC1(CCN(C(=O)CBr)CC1)S2
GI50 [1]: 0.614 µM (active) | GI50 [2]: 0.368 µM (active) | GI50 [3]: 0.373 µM (active) | GI50 [4]: 1.9 µM (inactive) | GI50 [5]: 0.647 µM (active) | GI50 [6]: 0.064 µM (active) | GI50 [7]: 1.31 µM (inactive) | GI50 [8]: 1.6 µM (inactive) | GI50 [9]: 1.81 µM (inactive) | GI50 [13]: 1.94 µM (inactive) | GI50 [14]: 1.68 µM (inactive) | GI50 [15]: 2 µM (inactive) | GI50 [16]: 1.41 µM (inactive) | GI50 [17]: 1.58 µM (inactive) | GI50 [18]: 0.332 µM (active) | GI50 [19]: 1.59 µM (inactive)

CCOC1(COP(=O)(OCc2ccccc2)OCc2ccccc2)COC(COP(=O)(OCc2ccccc2)OCc2ccccc2)(OCC)CO1 (stereo not drawn)
GI50 [1]: > 100 µM (inactive) | GI50 [2]: > 100 µM (inactive) | GI50 [20]: > 100 µM (inactive) | GI50 [3]: > 100 µM (inactive) | GI50 [4]: > 100 µM (inactive) | GI50 [5]: > 100 µM (inactive) | GI50 [6]: > 100 µM (inactive) | GI50 [8]: > 100 µM (inactive) | GI50 [9]: 95.7 µM (inactive) | GI50 [10]: > 100 µM (inactive) | GI50 [11]: 4.33 µM (inactive) | GI50 [12]: > 100 µM (inactive) | GI50 [13]: > 100 µM (inactive) | GI50 [14]: > 100 µM (inactive) | GI50 [15]: > 100 µM (inactive) | GI50 [16]: > 100 µM (inactive) | GI50 [17]: > 100 µM (inactive) | GI50 [18]: > 100 µM (inactive) | GI50 [19]: > 100 µM (inactive)
